“Also recorded” adds a separate entry of the source. Where two headings read alike, the source gives them in different places.
Assays:
[1] = Intravenous pharmacokinetics in Sprague-Dawley rats; format: in vivo; settings: intravenous 4 mg/kg; for plasma level relative to LLOQ (10 ng/mL) over sampling period: sampling up to 660 min; for B / α / β / A: two-compartment model; for A: HP-β-CD formulation; for AUC(0-t) / clearance / Vd / half-life: male, Sprague-Dawley, rat, plasma; for clearance: read-out: Cl (clearance); for Vd: read-out: Vc (volume of distribution of the central compartment); for half-life: read-out: t1/2 λZ (terminal elimination half-life)
Protocol: (§1) This animal model has been used to investigate the pharmacokinetics of various stilbenes. The animal handling protocol was reviewed and approved by the Institutional Animal Care and Use Committee of the National University of Singapore (NUS). All animal experiments were carried out in Comparative Medicine Centre of NUS. Sprague-Dawley rats (male, 346 ± 18 g, bred by Centre for Animal Resources, NUS) were maintained on a 12 h light/dark cycle with free access to food and water. Polyethylene tube (inner diameter (I.D.) 0.58 mm, outside diameter (O.D.) 0.965 mm, Becton Dickinson, Sparks, MD, USA) was implanted into the right jugular vein under anaesthesia on the day before pharmacokinetic study. This catheter was used for intravenous drug administration as well as for blood sampling.
(§2) Twenty-two rats were divided into four groups. Group 1 and Group 2 (n = 5) received single intravenous bolus dose (4 mg/kg) of 2,3-DMS and 3,4-DMS respectively. Serial blood samples were collected before dosing (0 min) and at 5, 15, 30, 60, 90, 120, 180, 300, 480 and 660 min post-dosing. Group 3 and Group 4 (n = 6) received single oral dose (10 mg/kg) of 2,3-DMS and 3,4-DMS respectively through oral gavage and serial blood samples were collected before dosing (0 min) and at 15, 30, 45, 60, 90, 120, 180, 300, 480 and 660 min post-dosing. 0.3 mL heparin-saline (10 I.U./mL) was used to flush the cannular after each intravenous injection or blood sampling to maintain its patency. Blood samples were centrifuged at 3500 g at 4 °C for 5 min and plasma was collected and stored at −80 °C.
(§3) Pharmacokinetic parameters were derived using WinNonlin standard version 1.0 (Scientific Consulting Inc., Apex, NC, USA). […] Plasma exposure (area under the plasma concentration-time curve from 0 min to last measurable point (AUC0→last)) in rats receiving intravenous administration was calculated by the linear/log trapezoidal rule while the linear trapezoidal rule was used to calculate the plasma exposure in rats receiving oral administration. Clearance (Cl0→last), mean transit time (MTT0→last) and terminal half-life (t1/2 λZ) were calculated using non-compartmental analysis. Maximal plasma concentration (Cmax) and the time required to reach (tmax) were from direct experimental observations. Absolute oral bioavailability (F) of 2,3-DMS was calculated through reported method.

[2] = Stock solution stability (DMSO stock, room temperature); format: physicochemical; settings: Stock solution stored at 24 °C for 8 days, read-out: Stability (% Remained)
Protocol: (§4) Stock solutions of analytes were prepared in DMSO to a final concentration of 1 mg/mL, stored at room temperature (24 °C) and protected from light. The internal standard (IS) (trans-stilbene) was prepared by dissolving in acetonitrile and diluted to 100 ng/mL (working solution). Equal volumes of rat liver microsome (RLM) and trans-stilbene–acetonitrile working solution were mixed to quench the reaction. After vigorous vortexing for 20 s, the samples were centrifuged at 6,000 g for 10 min at 4 °C. Rat plasma samples were processed by adding trans-stilbene–acetonitrile working solution to rat plasma in 3:1 ratio. After vigorous vortexing for 20 s, the samples were centrifuged at 10,000 g for 4 min at 4 °C. Finally, the supernatant was transferred into a glass insert that was pre-installed in a 1.5 mL auto-sampler vial. During each assay, 75 µL supernatant was injected into the HPLC-UV system.
Stabilities of 2,3-DMS in stock solution were evaluated after storage at room temperature for eight days. Stability of 2,3-DMS in rat plasma under different conditions was profiled with QC samples. Freeze-thaw stability was assessed after three freeze (−80 °C)–thaw (24 °C) cycles. Short-term room temperature stability (24 °C) of 2,3-DMS in rat plasma was examined after storing such samples at room temperature for 6 h. […] The stability of 3,4-DMS was assessed in the same way. […]

[3] = Stability in rat plasma (QC samples: short-term, freeze-thaw, long-term); format: in vitro ADME; settings: read-out: Stability (% Remained); for remaining at 25 ng/mL / remaining at 400 ng/mL / remaining at 1400 ng/mL: Plasma samples after three freeze-thaw cycles; for remaining at 25 ng/mL / remaining at 6 h, 25 ng/mL / remaining at 240 h, 25 ng/mL: spiked 25 ng/mL; for remaining at 400 ng/mL / remaining at 6 h, 400 ng/mL / remaining at 240 h, 400 ng/mL: spiked 400 ng/mL; for remaining at 1400 ng/mL / remaining at 6 h, 1400 ng/mL / remaining at 240 h, 1400 ng/mL: spiked 1400 ng/mL; for remaining at 6 h, 25 ng/mL / remaining at 6 h, 400 ng/mL / remaining at 6 h, 1400 ng/mL: Plasma samples stored at 4 °C for 6 h; for remaining at 240 h, 25 ng/mL / remaining at 240 h, 400 ng/mL / remaining at 240 h, 1400 ng/mL: Plasma samples stored at −80 °C for 10 days
Protocol: Stabilities of 2,3-DMS in stock solution were evaluated after storage at room temperature for eight days. Stability of 2,3-DMS in rat plasma under different conditions was profiled with QC samples. Freeze-thaw stability was assessed after three freeze (−80 °C)–thaw (24 °C) cycles. […] Long-term storage stability of 2,3-DMS in rat plasma was studied after being stored at −80 °C for 10 days. Post-preparative stability study was conducted by re-analyzing samples (kept in auto-sampler vial at room temperature) 24 h later. The stability of 3,4-DMS was assessed in the same way. Samples were considered stable if analytical responses were within 100% ± 15% of corresponding freshly prepared samples.

[4] = Oral pharmacokinetics in Sprague-Dawley rats; format: in vivo; settings: for post-dosing plasma samples above LLOQ (10 ng/mL): six rats
Protocol: as §1, §2, §3

[5] = Post-preparative stability (processed samples in auto-sampler vial); format: physicochemical; settings: rat, Post-preparative samples stored at 24 °C for 24 h, read-out: Stability (% Remained); for remaining at 24 h, 25 ng/mL: spiked 25 ng/mL; for remaining at 24 h, 400 ng/mL: spiked 400 ng/mL; for remaining at 24 h, 1400 ng/mL: spiked 1400 ng/mL
Protocol: as §4
Stabilities of 2,3-DMS in stock solution were evaluated after storage at room temperature for eight days. Stability of 2,3-DMS in rat plasma under different conditions was profiled with QC samples. Freeze-thaw stability was assessed after three freeze (−80 °C)–thaw (24 °C) cycles. Short-term room temperature stability (24 °C) of 2,3-DMS in rat plasma was examined after storing such samples at room temperature for 6 h. Long-term storage stability of 2,3-DMS in rat plasma was studied after being stored at −80 °C for 10 days. Post-preparative stability study was conducted by re-analyzing samples (kept in auto-sampler vial at room temperature) 24 h later. The stability of 3,4-DMS was assessed in the same way. Samples were considered stable if analytical responses were within 100% ± 15% of corresponding freshly prepared samples.

[6] = Rat liver microsome metabolic stability; format: in vitro ADME, Sprague-Dawley rat; settings: for half-life at 0.6 µg/mL: Sprague-Dawley, pH 7.4, in the presence of NADPH, 37 °C; for half-life at 0.6 µg/mL / compound remained after microsomal incubation: rat liver microsomes; for stability in acetonitrile-inactivated microsomes: acetonitrile-inactivated microsomes (chemical stability); for compound remained after microsomal incubation: in the absence of NADPH, 45 min incubation
Protocol: RLM metabolic stabilities of 2,3-DMS and 3,4-DMS were examined by mixing Sprague-Dawley RLM with potassium phosphate buffer (pH = 7.4), NADPH regenerating solution B and either compounds to achieve a final compound concentration of 0.6 µg/mL. Negative control was set up, using Milli-Q water in place of NADPH. Chemical stability of compound in inactivated RLM was checked using similar system with acetonitrile/Milli-Q mixture instead of phosphate buffe.
Pre-incubation was done in 37 °C water bath for 5 min before NADPH A was added to initiate reaction. Aliquots were drawn at 0, 5, 15, 25, 35 and 45 min and quenched using ice cold trans-stilbene–acetonitrile working solution. Chemical stability was monitored at 0, 25 and 45 min. The samples were further processed for HPLC analysis as described above.
To assess extent of metabolism, percentage of compound remaining at each time point with respect to 0 min was calculated. Mean and standard deviation was obtained from column statistics using GraphPad Prism 5, version 5.03 for Windows, via raw means from the six replicates of each setup. Elimination half-lives were obtained from non-linear regression via one-phase exponential decay, where x was time in minutes, y was percentage remaining with respect to 0 min and a weighting factor of 1/y^2 was used.

[7] = cited from earlier work

Compound | plasma level relative to LLOQ (10 ng/mL) over sampling period [1] | B [1] | α [1] | β [1] | A [1] | AUC(0-t) [1] | clearance [1] | Vd [1] | half-life [1] | remaining at 192 h, 1 mg/mL [2] | remaining at 25 ng/mL [3] | remaining at 400 ng/mL [3] | remaining at 1400 ng/mL [3] | remaining at 6 h, 25 ng/mL [3] | remaining at 6 h, 400 ng/mL [3] | remaining at 6 h, 1400 ng/mL [3] | remaining at 240 h, 25 ng/mL [3] | remaining at 240 h, 400 ng/mL [3] | remaining at 240 h, 1400 ng/mL [3] | oral bioavailability (in words) [7] | further results
COc1ccc(/C=C/c2ccccc2)cc1OC [3,4-DMS, trans-3,4-dimethoxystilbene] | became unmeasurable at 11 h | 55.9 ± 26.1 ng/mL | 5.25 ± 1.45 10^−2 × min^−1 | 3.85 ± 2.45 10^−3 × min^−1 | 702.7 ± 148.5 ng/mL | 427 ng·h/mL | 143 ± 40.5 mL/min/kg | 5.58 ± 1.73 L/kg | 3.22 ± 2.05 h | 96.7 ± 2.7% | 106 ± 5.2% | 93.4 ± 0.7% | 92.4 ± 2.4% | 104 ± 6.6% | 94.7 ± 0.7% | 96.2 ± 0.4% | 91 ± 13.8% | 93.6 ± 4.6% | 93 ± 3.7% |  | clearance relative to rat hepatic blood flow [1]: three-fold; MTT0→last (mean transit time) ([1]; 4 mg/kg): 61.4 ± 27.1 min; post-dosing plasma samples above LLOQ (10 ng/mL) ([4]; oral 10 mg/kg): three post-dosing samples collected from one out of six rats; oral bioavailability (in words) ([4]; oral 10 mg/kg, 10 mg/kg): even poorer than 2,3-DMS; also recorded: almost nil; remaining at 24 h, 25 ng/mL [5]: 98.1 ± 5.7%; remaining at 24 h, 400 ng/mL [5]: 98.1 ± 1.8%; remaining at 24 h, 1400 ng/mL [5]: 100.1 ± 0.6%; half-life at 0.6 µg/mL [6]: 0.277 h; stability in acetonitrile-inactivated microsomes [6]: good stability; compound remained after microsomal incubation [6]: 78.1% ± 5.3%
COc1cc(C=Cc2cc(OC)c(OC)c(OC)c2)cc(OC)c1 [3,4,5,3',5'-pentamethoxystilbene] |  |  |  |  |  |  |  |  |  |  |  |  |  |  |  |  |  |  |  | excellent or quite good oral bioavailability | 
COc1ccc(/C=C/c2cc(OC)cc(OC)c2)cc1 [3,5,4'-trimethoxysilbene, trans-3,5,4'-trimethoxystilbene] |  |  |  |  |  |  |  |  |  |  |  |  |  |  |  |  |  |  |  | excellent or quite good oral bioavailability | 
COc1cc(/C=C/c2ccc(OC)c(OC)c2)cc(OC)c1 [trans-3,5,3',4'-tetramethoxystilbene] |  |  |  |  |  |  |  |  |  |  |  |  |  |  |  |  |  |  |  | excellent or quite good oral bioavailability | 
Oc1cc(O)cc(/C=C/c2ccccc2)c1 [pinosylvine, trans-3,5-dihydroxystilbene] |  |  |  |  |  |  |  |  |  |  |  |  |  |  |  |  |  |  |  | much poorer than resveratrol | 
COc1cccc(/C=C/c2ccccc2)c1OC [2,3-DMS, trans-2,3-Dimethoxystilbene] | remained quantifiable throughout our sampling period | 135.6 ± 40.6 ng/mL | 5.02 ± 1.76 10^−2 × min^−1 | 3.08 ± 0.73 10^−3 × min^−1 | 1384.1 ± 251.4 ng/mL | 1160 ng·h/mL | 52 ± 7 mL/min/kg | 2.71 ± 0.51 L/kg | 4.81 ± 1.55 h | 98.1 ± 2.1% | 102 ± 4.5% | 93.2 ± 1.2% | 91.8 ± 2.6% | 94.9 ± 4.4% | 95.5 ± 1.1% | 95.4 ± 0.6% | 107 ± 6.6% | 96.6 ± 4.7% | 93.5 ± 4.1% |  | MTT0→last (mean transit time) [1]: 131.0 ± 4.5 min; Cmax ([4]; male, Sprague-Dawley, rat, plasma, oral 10 mg/kg): 37.5 ± 23.7 ng/mL; bioavailability ([4]; male, Sprague-Dawley, rat, plasma, oral 10 mg/kg vs intravenous 4 mg/kg, read-out: F (oral bioavailability)): 2.22 ± 2.13%; AUC(0-t) ([4]; male, Sprague-Dawley, rat, plasma, oral 10 mg/kg, HP-β-CD formulation): 64.3 ng·h/mL; MTT0→last (mean transit time) ([4]; oral 10 mg/kg): 83.2 ± 67.4 min; post-dosing plasma samples above LLOQ (10 ng/mL) ([4]; oral 10 mg/kg): 32 out of 60; remaining at 24 h, 25 ng/mL [5]: 97.2 ± 2.5%; remaining at 24 h, 400 ng/mL [5]: 100.1 ± 0.5%; remaining at 24 h, 1400 ng/mL [5]: 100.6 ± 0.7%; half-life at 0.6 µg/mL [6]: 0.237 h; stability in acetonitrile-inactivated microsomes [6]: good stability; compound remained after microsomal incubation [6]: 46.6% ± 4.6%
